Consider 1 molecule from publication PMC8092340 (Oncotarget, 2021).

SMILES strings stand for the structures. Entries after “also recorded” stand apart in the source; their conditions may differ. Read-outs that look alike come from different tables or passages of the source.

The nature of series [1]: Microsomal half-life study. It is filed as in vitro ADME. The settings on record: mouse, mouse liver microsomes; read-out: mouse liver microsome half-life.
The conditions of series [2]: cited from earlier work.
Series [3] can be described thus: In vivo pharmacokinetic study, brain tissue. The settings on record: female, athymic nude, mouse, brain, po, 30 mg/kg. The procedure:
(§1) These measurements were used to calculate various pharmacokinetic parameters critical to bioavailability including time to reach maximum concentration (tmax), maximum concentration achieved (Cmax), and half-life (t1/2) (Figure 5C, 5D, Supplementary Table 1).
(§2) Compound concentrations were measured at these time-points using Liquid Chromatography with tandem mass spectrometry (LC-MS-MS). Pharmacokinetic studies were performed by orally dosing test compounds at 30 mg/kg dissolved in 50% PEG400 and 50% water in female athymic nude mice. Plasma and brain tissue concentration were measured using mass spectrometry (MS).

Series [4] in a line: In vivo pharmacokinetic study, plasma. As to the method:
as §1, §2

The subject of series [5] is HR. Briefly: EJ-DR 384-well imaging assay, HR (GFP) readout. The settings on record: Homo sapiens, read-out: HR IC50.
Excerpt: (§3) The EJ-DR system was made in the U2OS cell line, which provides a simultaneous read-out of alt-NHEJ and HR activity in cells in response to induced DSBs. The cell line consists of a repair template and a reporter vector. When both these elements are chromosomally integrated, cleavage of a restriction enzyme site in the repair template, induced by ligand addition, causes a DSB. Depending on which DSB repair pathway is utilized, cells either express GFP if HR is used to repair the break site using the downstream homology template near the restriction enzyme site, or RFP if alt-NHEJ is involved in ligation of the cut ends.
(§4) An overview of the workflow of this assay is presented in Figure 1A, which starts with the addition of the test compounds and DSB ligands, followed by a media wash 24 hours later to terminate DSB induction, and then live cell imaging 96 hours later. After live cell imaging, we quantify the individual intensities of GFP and RFP signal in cells using the IN Cell imager. We then use the intensity measurements of individual cells in each channel and plot these intensities as a histogram to threshold out baseline levels of GFP and RFP intensity in the absence of ligands (Figure 1B and 1C). After applying the threshold, the percent of GFP and RFP-positive cells is calculated as a readout of induction of HR and alt-NHEJ activity, respectively.
(§5) In addition to quantifying HR and alt-NHEJ activities, cytotoxicity in the absence of DSB ligands (CT) was also evaluated by quantifying the number of Hoeschst 33342-stained cells, allowing us to better understand the margin between on-target and presumable off-target, DNA repair-independent effects. IC50 values of HR inhibition, alt-NHEJ inhibition, and CT were used to calculate the “selectivity index” (SI) (defined as the ratio of CT IC50/alt-NHEJ IC50) and alt-NHEJ selectivity defined as HR IC50/alt-NHEJ IC50.
(§6) The EJ-DR cell line was created in the U2OS cells (a human osteosarcoma cell line), and contained a stably integrated EJ-RFP plasmid to measure alt-NHEJ repair and a DR-GFP plasmid to measure HR repair, and has been previously described [9]. The EJ-DR cell line was cultured in high glucose Dulbecco’s modified Eagle’s medium (DMEM; Thermo Fisher Scientific) with L-glutamine containing 10% tetracycline-free (tet-free) fetal bovine serum (FBS; Takara Bio Inc. and Atlanta Biologics) and 1% Penicillin Streptomycin (Thermo Fisher Scientific). Tet-free FBS was used to prevent any expression of the tetracycline-inducible EJ-RFP system from residual tetracycline found in most commercially available FBS. All cells were maintained at 37°C with 5% CO2.
(§7) The EJ-DR cells were plated in 384-well imaging plates at 2500 cells/well. 24 hours later, the DSB ligands, Triamcinolone Acetonide (TA; Sigma-Aldrich Co., LLC) and Shield-1 (Takara Bio Inc.), responsible for inducing the DSBs, were added for a final concentration of 100 nM TA and 1 μM Shield-1. Test compounds were also added at the same time using Echo 550 Acoustic Dispenser (Labcyte). A separate plate was seeded to test for cytotoxicity of the test compounds in the absence of the DSB ligands. […] The DSB ligands were washed out 24 hours after addition. 96 hours after addition of the ligands and test compounds, the media was washed off and cells were incubated with Hoechst nuclear stain in Live Cell Imaging Solution (Thermo Fisher Scientific). Plates were rinsed and prepared for immediate live cell imaging using GE IN Cell 2200 (Cytiva Life Sciences).
Series [6] has as its system alt-NHEJ. Briefly: EJ-DR 384-well imaging assay, alt-NHEJ (RFP) readout. The settings on record: for IC50: Homo sapiens.
Excerpt: as §3, §4, §5, §6, §7
The target in series [7] is T1, CYP2D6 (Homo sapiens, UniProt P10635).
T1 construct: tissue Eurofins Scientific; host or cells: human liver microsomes
T1 sequence (P10635 whole entry): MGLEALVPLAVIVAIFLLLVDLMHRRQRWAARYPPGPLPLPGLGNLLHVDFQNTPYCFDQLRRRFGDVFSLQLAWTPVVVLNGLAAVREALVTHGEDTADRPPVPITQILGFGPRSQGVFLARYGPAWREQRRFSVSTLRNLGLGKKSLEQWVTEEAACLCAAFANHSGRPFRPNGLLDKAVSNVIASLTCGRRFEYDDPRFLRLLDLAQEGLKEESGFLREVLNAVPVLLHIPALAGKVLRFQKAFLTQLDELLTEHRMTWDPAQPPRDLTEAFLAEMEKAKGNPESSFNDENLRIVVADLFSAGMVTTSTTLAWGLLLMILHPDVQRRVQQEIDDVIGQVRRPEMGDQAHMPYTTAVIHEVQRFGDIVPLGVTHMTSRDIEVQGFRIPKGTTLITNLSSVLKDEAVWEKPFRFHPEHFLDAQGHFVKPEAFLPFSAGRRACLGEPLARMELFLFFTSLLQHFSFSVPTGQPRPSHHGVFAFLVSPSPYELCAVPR
As to the kind of experiment: Cytochrome P450 inhibition assay in human liver microsomes, CYP2D6. The settings on record: human liver microsomes. It is filed as in vitro ADME. The procedure:
CYP inhibition assays were performed by Eurofins Scientific. Test compounds were incubated with human liver microsomes, followed by compound detection using high performance liquid chromatography with tandem mass spectrometry (HPLC-MS/MS).
(Liver microsomes are vesicles of endoplasmic reticulum, rich in cytochrome P450 enzymes.)

Series [8] can be described thus: Cytotoxicity in the absence of DSB ligands (CT), Hoechst cell count. It is filed as cell-based, human. The settings on record: human, EJ-DR U2OS cells; no DSB ligands; Table 1; read-out: Cytotoxicity IC50.
Description: In addition to quantifying HR and alt-NHEJ activities, cytotoxicity in the absence of DSB ligands (CT) was also evaluated by quantifying the number of Hoeschst 33342-stained cells, allowing us to better understand the margin between on-target and presumable off-target, DNA repair-independent effects. IC50 values of HR inhibition, alt-NHEJ inhibition, and CT were used to calculate the “selectivity index” (SI) (defined as the ratio of CT IC50/alt-NHEJ IC50) and alt-NHEJ selectivity defined as HR IC50/alt-NHEJ IC50. […] (Figure 1E).
The EJ-DR cell line was cultured in high glucose Dulbecco’s modified Eagle’s medium (DMEM; Thermo Fisher Scientific) with L-glutamine containing 10% tetracycline-free (tet-free) fetal bovine serum (FBS; Takara Bio Inc. and Atlanta Biologics) and 1% Penicillin Streptomycin (Thermo Fisher Scientific). […] All cells were maintained at 37°C with 5% CO2.
The EJ-DR cells were plated in 384-well imaging plates at 2500 cells/well. 24 hours later, the DSB ligands, Triamcinolone Acetonide (TA; Sigma-Aldrich Co., LLC) and Shield-1 (Takara Bio Inc.), responsible for inducing the DSBs, were added for a final concentration of 100 nM TA and 1 μM Shield-1. Test compounds were also added at the same time using Echo 550 Acoustic Dispenser (Labcyte). A separate plate was seeded to test for cytotoxicity of the test compounds in the absence of the DSB ligands. […] The DSB ligands were washed out 24 hours after addition. 96 hours after addition of the ligands and test compounds, the media was washed off and cells were incubated with Hoechst nuclear stain in Live Cell Imaging Solution (Thermo Fisher Scientific). Plates were rinsed and prepared for immediate live cell imaging using GE IN Cell 2200 (Cytiva Life Sciences). Images were analyzed using InCell Analyzer software (Cytiva Life Sciences). Nuclei were segmented based on the Hoechst staining, and the intensity of the GFP and RFP signals in control populations were measured and binned into histograms to determine signal intensity threshold. The GFP and RFP intensity of all wells was then analyzed, and the percent of positive cells with GFP and RFP intensity above the threshold was calculated to determine the induction of signal. The DAPI cell counts were used to determine the relative cytotoxicity of test compounds in the absence of induced DNA damage.
Where [9] appears, read: recurrent GBM patients, mibefradil with hypofractionated RT.
Setting [10] is: oral 30 mg/kg, female athymic nude mice.

On to `COCC(=O)O[C@]1(CCN(C)CCCc2nc3ccccc3[nH]2)CCc2cc(F)ccc2[C@@H]1C(C)C` [Mibefradil, mibefradil], for which the half-life in series [1] is 0.25 h; in series [3] it was approximately 8 h; in series [4] (female, athymic nude, mouse, plasma, po, 30 mg/kg), 2.6 h. The “patients showing QT prolongation” value in series [2] (mibefradil phase I trial, ref manuscript under preparation, 12) is listed as “five out of 19”. In addition, the “QT interval elongation, dose-limiting toxicity” value in series [2] (setting [9]) is on record as 28%. In series [2] (setting [9]), the “sinus bradycardia, dose-limiting toxicity” value is 28%. Besides, the Cmax in series [4] (female, athymic nude, mouse, plasma, po, 30 mg/kg, Maximum concentration (Cmax), oral 30 mg/kg, female athymic nude mice, YU252222 given as methyl ester prodrug) was 1090 ng/mL. In addition, the “% AUC Extrapolation” value in series [4] (setting [10]) was 0.4%. For the same molecule, the “AUC(0-x)/Dose” value in series [4] (setting [10]) stood at 161 ng·h/mL/mg/kg. The molecule also yielded a Cmax/Dose in series [4] (setting [10]) of 36.3 ng/mL/mg/kg. Further, the “Time at which Cmax was observed (tmax)” value in series [4] (setting [10]) worked out at 1.0 h. The IC50 in series [5] was more than 60 µM; in series [6] (U2OS, read-out: alt-NHEJ IC50) it was approximately 4 µM; in series [6] (read-out: nc-EJ IC50), 3.8 µM; in series [7], 0.6 µM. In series [6] (EJ-DR U2OS cells), the “effect on alt-NHEJ and HR in the EJ-DR assay” value is “selective inhibition of alt-NHEJ over HR without significant cellular cytotoxicity; also recorded: selective inhibition of alt-NHEJ over HR”. In addition, the IC50 at 96 h in series [8] is 10.5 µM.

As usually defined, the half-life is how long it takes for the measured level to halve. For orientation: Cmax means the peak of the concentration-time curve. The IC50 is the concentration at which inhibition is half-maximal.
